# Experimental data as given in patent EP4483954A1 (Masarykova Univerzita, priority 2023, dated 2025).
# Legend:
# Assay type in all cases: biochemical
# DYRK2 (h) = molecular target: T1, DYRK2 (h) (Homo sapiens, UniProt Q92630); assay: radiometric kinase assay (KinaseProfiler, Eurofins), DYRK2; settings: in vitro radiometric kinase assay, tested at 1 nM to 10 000 nM, no pre-incubation; read-out: inhibitory activities (IC50 values) DYRK2
# T1 construct: purchased Eurofins (KinaseProfiler)
# T1 sequence (Q92630 1-601): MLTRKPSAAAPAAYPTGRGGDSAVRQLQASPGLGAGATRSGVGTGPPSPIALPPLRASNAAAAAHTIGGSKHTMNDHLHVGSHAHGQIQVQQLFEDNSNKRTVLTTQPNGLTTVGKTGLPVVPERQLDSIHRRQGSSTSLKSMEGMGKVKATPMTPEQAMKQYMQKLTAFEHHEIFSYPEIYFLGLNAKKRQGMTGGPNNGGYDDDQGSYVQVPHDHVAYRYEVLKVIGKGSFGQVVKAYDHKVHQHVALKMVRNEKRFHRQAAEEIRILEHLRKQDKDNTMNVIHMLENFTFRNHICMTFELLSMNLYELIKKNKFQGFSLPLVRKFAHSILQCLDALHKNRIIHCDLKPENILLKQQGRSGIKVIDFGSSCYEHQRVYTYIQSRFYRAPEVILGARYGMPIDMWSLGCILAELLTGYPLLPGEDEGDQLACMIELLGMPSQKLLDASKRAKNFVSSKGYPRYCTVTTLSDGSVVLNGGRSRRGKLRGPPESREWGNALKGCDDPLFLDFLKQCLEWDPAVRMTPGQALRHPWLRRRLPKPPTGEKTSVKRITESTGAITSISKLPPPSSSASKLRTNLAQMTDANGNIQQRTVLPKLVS
# Protocol: (§1) The compounds were profiled in the radiometric assays (KinaseProfiler, Eurofins).
# (§2) All compounds were prepared to 50x final assay concentration in 100% DMSO. This working stock of the compound was added to the assay well as the first component in the reaction, followed by the remaining components as detailed in the general assay protocols below. There was no pre-incubation step between the compound and the kinase prior to initiation of the reaction.
# (§3) DYRK2 (h) was incubated with 8 mM MOPS pH 7.0, 0.2 mM EDTA, 2 mg/mL casein, 10 mM magnesium acetate and γ-^33P-ATP (specific activity and concentration as required). The reaction was initiated by the addition of the Mg/ATP mix. After incubation for 40 minutes at room temperature, the reaction was stopped by the addition of phosphoric acid to a concentration of 0.5%. An aliquot of the reaction was then spotted onto a filter and washed four times for 4 minutes in 0.425% phosphoric acid and once in methanol prior to drying and scintillation counting.
# (§4) Kinase activity data were expressed as the percent remaining kinase activity in tested samples compared to the vehicle (DMSO) reactions. The compounds were tested at the following concentrations: 1 nM, 3 nM, 10 nM, 30 nM, 100 nM, 300 nM, 1000 nM, 3000 nM, and 10 000 nM; IC50 values and curve fits were then obtained.
# CLK2 (h) = molecular target: T2, CLK2 (h) (Homo sapiens, UniProt P49760); assay: radiometric kinase assay (KinaseProfiler, Eurofins), CLK2; settings: in vitro radiometric kinase assay, tested at 1 nM to 10 000 nM, no pre-incubation; read-out: inhibitory activities (IC50 values) CLK2
# T2 construct: purchased Eurofins (KinaseProfiler)
# T2 sequence (P49760 whole entry): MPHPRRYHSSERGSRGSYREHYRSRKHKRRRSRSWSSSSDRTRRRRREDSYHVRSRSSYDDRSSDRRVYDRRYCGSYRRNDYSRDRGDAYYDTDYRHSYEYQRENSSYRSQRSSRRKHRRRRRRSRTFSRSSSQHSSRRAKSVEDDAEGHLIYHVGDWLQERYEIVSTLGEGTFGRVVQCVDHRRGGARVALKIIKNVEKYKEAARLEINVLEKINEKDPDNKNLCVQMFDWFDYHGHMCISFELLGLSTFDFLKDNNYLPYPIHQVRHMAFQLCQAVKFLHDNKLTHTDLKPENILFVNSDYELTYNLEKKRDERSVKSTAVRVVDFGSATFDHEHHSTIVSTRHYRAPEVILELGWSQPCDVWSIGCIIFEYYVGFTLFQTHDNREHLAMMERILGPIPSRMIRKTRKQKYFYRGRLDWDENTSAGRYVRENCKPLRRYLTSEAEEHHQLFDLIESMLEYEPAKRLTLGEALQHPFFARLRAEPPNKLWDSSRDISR
# Protocol: as §1
# (§5) Briefly, kinases were diluted in the buffer shown below prior to addition to the reaction mix: • CDKL3, TAF1L: 20 mM Tris/HCl pH 8.5, 0.2 mM EDTA, 0.1% β-mercaptoethanol, 0.01% Brij-35, 5% glycerol, 1 mg/ml BSA; • Haspin: 15 mM MOPS, 0.75 mM EDTA, 0.0075% Brij-35, 3.75% Glycerol, 150 mM NaCl, 0.1% β-mercaptoethanol, 1 mg/mLBSA; • CDKL4, CLK2, PIM1, TRB2: […], 1 mM EDTA, 0.01% Brij-35, 5% Glycerol, 0.1% β-mercaptoethanol, 1 mg/mL BSA.
# as §2
# as §3, with “CLK2” for “DYRK2”, “20 µM […](p)EDEEE (SEQ ID NO. 2),” for “2 mg/mL casein,”
# as §4
# PIM1 (h) = molecular target: T3, PIM1 (h) (Homo sapiens, UniProt P11309); assay: radiometric kinase assay (KinaseProfiler, Eurofins), PIM1; settings: in vitro radiometric kinase assay, tested at 1 nM to 10 000 nM, no pre-incubation; read-out: inhibitory activities (IC50 values) PIM1
# T3 construct: purchased Eurofins (KinaseProfiler)
# T3 sequence (P11309 whole entry): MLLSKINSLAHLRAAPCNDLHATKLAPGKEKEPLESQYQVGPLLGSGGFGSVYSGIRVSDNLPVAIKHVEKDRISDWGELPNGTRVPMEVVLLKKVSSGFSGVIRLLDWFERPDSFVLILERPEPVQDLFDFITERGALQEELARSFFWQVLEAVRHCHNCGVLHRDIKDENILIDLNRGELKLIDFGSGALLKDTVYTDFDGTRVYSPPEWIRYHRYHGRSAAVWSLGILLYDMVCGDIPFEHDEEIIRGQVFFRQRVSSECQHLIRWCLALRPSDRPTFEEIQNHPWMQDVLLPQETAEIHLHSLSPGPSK
# Protocol: as §1, §5, §2
# as §3, with “PIM1” for “DYRK2”, “100 µM KKRNRTLTV (SEQ ID NO. 4),” for “2 mg/mL casein,”
# as §4
# CDKL3(h) = molecular target: T4, CDKL3(h) (Homo sapiens, UniProt Q8IVW4); assay: radiometric kinase assay (KinaseProfiler, Eurofins), CDKL3; settings: in vitro radiometric kinase assay, tested at 1 nM to 10 000 nM, no pre-incubation; read-out: inhibitory activities (IC50 values) CDKL3
# T4 construct: purchased Eurofins (KinaseProfiler)
# T4 sequence (Q8IVW4 whole entry): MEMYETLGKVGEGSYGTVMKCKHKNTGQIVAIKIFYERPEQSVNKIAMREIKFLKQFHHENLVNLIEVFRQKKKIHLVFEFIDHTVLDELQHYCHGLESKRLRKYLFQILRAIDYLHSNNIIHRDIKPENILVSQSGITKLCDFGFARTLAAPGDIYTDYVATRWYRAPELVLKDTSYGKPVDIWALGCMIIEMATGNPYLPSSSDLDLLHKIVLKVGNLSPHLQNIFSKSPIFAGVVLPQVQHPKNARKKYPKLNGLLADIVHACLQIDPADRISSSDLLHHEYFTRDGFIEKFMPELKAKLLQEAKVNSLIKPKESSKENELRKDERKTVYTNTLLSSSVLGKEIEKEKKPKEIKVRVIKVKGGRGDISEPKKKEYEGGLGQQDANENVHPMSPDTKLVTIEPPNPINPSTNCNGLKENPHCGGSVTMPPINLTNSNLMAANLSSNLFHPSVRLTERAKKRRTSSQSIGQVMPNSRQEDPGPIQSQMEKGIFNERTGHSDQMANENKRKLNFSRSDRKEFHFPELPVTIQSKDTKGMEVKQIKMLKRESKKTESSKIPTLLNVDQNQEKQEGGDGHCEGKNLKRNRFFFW
# Protocol: as §1, §5, §2
# CDKL3(h) was incubated with 8 mM MOPS pH 7.0, 0.2 mM EDTA, 250 µM RRRFRPASPLRGPPK (SEQ ID NO. 1), 10 mM magnesium acetate and γ-^33P-ATP (specific activity and concentration as required). The reaction was initiated by the addition of the Mg/ATP mix. After incubation for 120 minutes at room temperature, the reaction was stopped by the addition of phosphoric acid to a concentration of 0.5%. An aliquot of the stopped reaction was spotted onto a filter and washed four times for 4 minutes in 0.425% phosphoric acid and once in methanol prior to drying and scintillation counting.
# as §4
SMILES,IC50 (DYRK2 (h)) [µM],IC50 (CLK2 (h)) [µM],IC50 (PIM1 (h)) [µM],IC50 (CDKL3(h)) [µM]
"CC(C)n1cc(-c2ccc3scc(-c4ccncc4)c3n2)cn1 [Preparative Example 79, 5-(1-isopropyl-1H-pyrazol-4-yl)-3-(pyridin-4-yl)thieno[3,2-b]pyridine]",3 to 10,3 to 10,3 to 10,3 to 10
"Cn1ccc(-c2ccc3scc(-c4ccncc4)c3n2)n1 [Preparative Example 86, 5-(1-methyl-1H-pyrazol-3-yl)-3-(pyridin-4-yl)thieno[3,2-b]pyridine]",3 to 10,3 to 10,3 to 10,0.5 to 3
"Cc1cc(-c2csc3ccc(-c4cnn(C)c4)nc23)ccn1 [Preparative Example 15, 5-(1-methyl-1H-pyrazol-4-yl)-3-(2-methylpyridin-4-yl)-thieno[3,2-b]pyridine]",0.5 to 3,0.5 to 3,0.1 to 0.499,0.1 to 0.499
"Cc1cnccc1-c1csc2ccc(-c3cnn(C)c3)nc12 [Preparative Example 32, 5-(1-methyl-1H-pyrazol-4-yl)-3-(3-methylpyridin-4-yl)thieno[3,2-b]pyridine]",3 to 10,3 to 10,0.5 to 3,0.5 to 3
"Cn1cc(-c2ccc3scc(-c4ccc5ncnn5c4)c3n2)cn1 [Preparative Example 53, 3-([1,2,4]-triazolo[1,5-a]pyridin-6-yl)-5-(1-methyl-1H-pyrazol-4-yl)thieno[3,2-b]pyridine]",0.1 to 0.499,0.5 to 3,0.1 to 0.499,0.1 to 0.499
"COc1cc(-c2csc3ccc(-c4cnn(C)c4)nc23)ccn1 [Preparative Example 17, 3-(2-methoxypyridin-4-yl)-5-(1-methyl-1H-pyrazol-4-yl)thieno[3.2-b]pyridine]",0.1 to 0.499,0.5 to 3,0.1 to 0.499,0.1 to 0.499
"Cn1cc(-c2ccc3scc(-c4cccnc4)c3n2)cn1 [Preparative Example 11, 5-(1-methyl-1H-pyrazol-4-yl)-3-(pyridin-3-yl)thieno[3,2-b]pyridine]",0.5 to 3,3 to 10,0.5 to 3,0.1 to 0.499
"Cc1nn(C)c(C)c1-c1ccc2scc(-c3ccncc3)c2n1 [Preparative Example 85, 3-(pyridin-4-yl)-5-(1,3,5-trimethyl-1H-pyrazol-4-yl)thieno[3,2-b]pyridine]",3 to 10,3 to 10,3 to 10,0.5 to 3
"c1ccc(Cn2cc(-c3ccc4scc(-c5ccncc5)c4n3)cn2)cc1 [Preparative Example 81, 5-(1-benzyl-1H-pyrazol-4-yl)-3-(pyridin-4-yl)thieno[3,2-b]pyridine]",3 to 10,3 to 10,0.1 to 0.499,0.5 to 3
"Cn1nccc1-c1ccc2scc(-c3ccncc3)c2n1 [Preparative Example 90, 5-(1-methyl-1H-pyrazol-5-yl)-3-(pyridin-4-yl)thieno[3,2-b]pyridine]",3 to 10,3 to 10,3 to 10,0.5 to 3
"Cn1cc(-c2ccc3scc(-c4ccncc4)c3n2)c(NC(=O)OC(C)(C)C)n1 [Preparative Example 83, tert-butyl(1-methyl-4-(3-(pyridin-4-yl)thieno[3,2-b]pyridin-5-yl)-1H-pyrazol-3-yl)carbamate]",3 to 10,3 to 10,3 to 10,0.5 to 3
"Cc1nsc(-c2csc3ccc(-c4cnn(C)c4)nc23)n1 [Preparative Example 71, 3-(3-methyl-1,2,4-thiadiazol-5-yl)-5-(1-methyl-1H-pyrazol-4-yl)thieno[3,2-b]pyridine]",0.1 to 0.499,0.5 to 3,0.1 to 0.499,0.1 to 0.499

# Continued, values first:
IC50 (DYRK2 (h)) [µM],IC50 (CLK2 (h)) [µM],IC50 (PIM1 (h)) [µM],IC50 (CDKL3(h)) [µM],SMILES
3 to 10,0.5 to 3,0.5 to 3,0.1 to 0.499,"Cn1ccc(Nc2ccc3scc(-c4ccncc4)c3n2)n1 [Preparative Example 99, N-(1-methyl-1H-pyrazol-3-yl)-3-(pyridin-4-yl)thieno[3,2-b]pyridin-5-amine]"
3 to 10,0.5 to 3,0.5 to 3,3 to 10,"Cn1cc(-c2csc3ccc(Oc4ccccc4)nc23)cn1 [Preparative Example 139, 3-(1-methyl-1H-pyrazol-4-yl)-5-phenoxythieno[3,2-b]pyridine]"
0.5 to 3,0.5 to 3,0.1 to 0.499,0.5 to 3,"Cn1cncc1-c1ccc2scc(-c3ccncc3)c2n1 [Preparative Example 91, 5-(1-methyl-1H-imidazol-5-yl)-3-(pyridin-4-yl)thieno[3,2-b]pyridine]"
3 to 10,3 to 10,3 to 10,3 to 10,"Cc1cc2scc(-c3ccncc3)c2nc1-c1ccn(C)n1 [Preparative Example 151, 6-methyl-5-(1-methyl-1H-pyrazol-3-yl)-3-(pyridin-4-yl)thieno[3,2-b]pyridine]"
3 to 10,3 to 10,3 to 10,0.5 to 3,"Cc1cc(-c2cnn(C)c2)nc2c(-c3ccncc3)csc12 [Preparative Example 157, 7-methyl-5-(1-methyl-1H-pyrazol-4-yl)-3-(pyridin-4-yl)thieno[3,2-b]pyridine]"
3 to 10,3 to 10,0.5 to 3,0.5 to 3,"Cc1cc2scc(-c3ccncc3)c2nc1-c1cnn(C)c1 [Preparative Example 150, 6-methyl-5-(1-methyl-1H-pyrazol-4-yl)-3-(pyridin-4-yl)thieno[3,2-b]pyridine]"
3 to 10,0.5 to 3,0.5 to 3,0.1 to 0.499,"Cn1cc(-c2cc(Cl)c3scc(-c4ccncc4)c3n2)cn1 [Preparative Example 162, 7-chloro-5-(1-methyl-1H-pyrazol-4-yl)-3-(pyridin-4-yl)thieno[3,2-b]pyridine]"
0.5 to 3,0.1 to 0.499,0.5 to 3,0.02 to 0.099,"c1cc(-c2csc3ccc(Nc4cc[nH]n4)nc23)ccn1 [Preparative Example 101, N-(1H-pyrazol-3-yl)-3-(pyridin-4-yl)thieno[3,2-b]pyridin-5-amine]"
